Reference: patent US11427575B2, “Antitumor compound for activating JWA gene and degrading HER2, preparation method thereof, and application thereof” (SIMCERE PHARMACEUTICAL CO., LTD., priority 2019, dated 2022)

Key:
BT474 cells = details: BT474, 1 and 10 μM, 10-15 d, vs control
Description: (§1) Two human breast cancer cell lines BT474 and SKBR3 were incubated in DMEM medium containing, respectively, 20% and 10% fetal bovine serum (FBS), conventional double-antibody, and were placed in a 37° C. incubator with 5% CO2. The BT474 and SKBR3 cells in the logarithmic growth phase were transferred into 6-well plates for 800 cells per well. After the cells adhered to the walls of the plates, the cells were cultured in the medium containing different concentrations (0, 1, and 10 μM) of JAC1, respectively. By observing the formation of each cell colony, the cells were continued to be cultured for 10-15 d, followed by removal of medium. After fixation with methanol and photographing, the number of the cell colonies (each containing more than 50 cells) was counted using the software ImageJ, and the computer program SPSS is used for statistical analysis.

SKBR3 cells = details: SKBR3, 1 and 10 μM, 10-15 d, vs control
Description: as §1

promoter of JWA gene = experiment: Luciferase reporter gene under control of JWA gene promoter in HBE cells (high-throughput screening); type: cell-based, human; details: for fluorescence intensity of reporter gene: 48 h
Source text: High-throughput screening (HTS) was used to identify the human bronchial epithelial (HBE) cells stably transfected with a DNA construct with a luciferase gene under control of a 2,000 bp long promoter of JWA gene.
FIG. 1 is a sequence containing the 2000 bp promoter sequence of JWA gene that was used for a luciferase reporter gene plasmid construction.

JWA protein = details: 10 μM, 48 h
Source text: (§2) A HER2-positive BGC823 human gastric cancer cell line was established in which JWA gene was deleted using Crisp/cas9 technology. […] After protein extraction, western blotting technology was used to determine the expression levels of JWA and HER2 proteins in the wild-type cell line (JWA WT) and the JWA-knockout cell line (JWA KO).

HER2 protein [1] = experiment: Western blot in BGC823 gastric cancer cells (JWA WT and JWA KO), HER2; type: cell-based, human; details: 10 μM, 48 h
Source text: as §2

HER2 protein [2] = experiment: Laser confocal immunofluorescence in HER2-positive breast cancer cells, HER2 level and localization; type: cell-based, human; details: immunofluorescence, 0, 1, 10 μM, 24 h
Description: The cells were inoculated into a 35 mm glass bottom dish, treated with different concentrations (0, 1, and 10 μM) of JAC1 for 24 h, fixed with methanol for 15 min, washed three times with PBST, blocked with normal sheep serum for 1 h, and incubated in primary antibody overnight at 4° C. The cells were then washed three times with PBST, incubated in fluorescent secondary antibody and 4′,6-diamidino-2-phenylindole (DAPI), and photographed using a laser confocal scanning microscopy.

## COc1cccc2sc(Nc3nc4c(F)cccc4s3)nc12 [JAC1, 4-fluoro-N-(4-methoxybenzene (d)thiazole-2-group) benzene (d) thiazole-2-amine]
BT474 cells
  colony-forming ability: significantly reduce the colony-forming ability
SKBR3 cells
  colony-forming ability: significantly reduce the colony-forming ability
Promoter of JWA gene; 0.05 μg/mL
  fluorescence intensity of reporter gene: 13560.00
Promoter of JWA gene; 0.10 μg/mL
  fluorescence intensity of reporter gene: 16200.00
Promoter of JWA gene; 0.21 μg/mL
  fluorescence intensity of reporter gene: 21975.00
Promoter of JWA gene; 0.41 μg/mL
  fluorescence intensity of reporter gene: 28186.67
Promoter of JWA gene; 0.83 μg/mL
  fluorescence intensity of reporter gene: 38760.00
Promoter of JWA gene; 1.65 μg/mL
  fluorescence intensity of reporter gene: 54293.33
Promoter of JWA gene; 3.30 μg/mL
  fluorescence intensity of reporter gene: 68080.00
Promoter of JWA gene; result in words
  activation of JWA gene: particularly significant effect on activation of JWA gene
JWA protein; BGC823 JWA KO
  JWA expression level: no effect
JWA protein; BGC823 JWA WT
  JWA protein level: significantly increase JWA protein level
HER2 protein [1]; BGC823 JWA KO
  HER2 expression level: no effect
HER2 protein [1]; BGC823 JWA WT
  HER2 expression: repress HER2 expression
HER2 protein [2]
  HER2 protein level: HER2 protein level reduced
  cellular localization of HER2 protein: no effect on the localization of HER2 protein in the cell membrane
